Measurements published in patent publication US7781565B2 (priority 2006, dated 2010).
“Also recorded” adds a separate entry of the source.

test system: NCI-60 cell lines; format: cell-based, human

Substance | Cell Line (NCI-60 cell line the peptide is associated with) | Cell Line (NCI-60 cell line the peptide and its motif are associated with) | Cell Line the peptide is associated with (peptide recovered from phage library selection on this NCI-60 cell line) | Cell Line with which the peptide (and its tripeptide motif) is associated
GCGGVRD | HT-29 Colon | – | – | –
GDATLVS | – | 786-0 Renal | – | –
GDCGLVG | – | PC3 Prostate | – | –
GDLRVSV | – | – | UO31 Renal | –
GDRAVGL | – | – | UO31 Renal | –
GDRGVRG | – | A498 Renal | A498 Renal | –
GDRRLVS | – | – | NCI/ADR-RES Breast | –
GDSRRGV | – | – | – | Hop-62-Lung
GEALGLG | – | SK-MEL-2 Melanoma | – | –
GEGGSGG | – | OVCAR-5 Ovarian | – | –
GEGRLCG | – | – | CAIK-1 Renal | –
GEGSGSA | – | – | MDA-MB-435-Breast | –
GEHGLGA | – | – | – | H23-Lung
GEHLGGS | – | – | – | SR Leukemia
GESGRLS | – | – | – | Hop-92-Lung
GEVGLGV | HT-29 Colon | – | – | –
GFASLLR | HCT-15 Colon | – | – | –
GFGRLLW | – | – | A498 Renal | –
GFVAGRT | – | SK-MEL-5 Melanoma | – | –
GFYWLRS | – | – | – | Molt-4-Leukemia
GGAGRGA | – | OVCAR-4 Ovarian | – | –
GGAGSRR | – | – | UO31 Renal | –
GGALLRG | – | – | – | Hop-92-Lung

Substance | Cell Line (NCI-60 cell line the peptide is associated with) | Cell Line (NCI-60 cell line the peptide and its motif are associated with) | Cell Line the peptide is associated with (peptide recovered from phage library selection on this NCI-60 cell line) | Cell Line with which the peptide (and its tripeptide motif) is associated
GGASLTQ | SF-295 CNS | – | – | –
GGAVLVA | – | – | – | CCRF-CEM Leukemia
GGFLLVS | – | SK-OV-3-3 Ovarian | – | –
GGFTGGL | SF-295 CNS | – | – | –
GGGLPVD | – | – | MDA-MB-231 Breast | –
GGGRRAL | – | PC3 Prostate | – | –
GGGRSGV | – | – | – | H226-Lung
GGGSDGV | – | – | – | CCRF-CEM Leukemia
GGGSGGG | – | OVCAR-4 Ovarian | – | –
GGGSWLI | – | – | – | EKVX-Lung
GGLEQDG | – | – | SN12C Renal | –
GGLKVWR | – | PC3 Prostate | – | –
GGLMPRY | – | – | BT-549 Breast | –
GGLPVQM | – | PC3 Prostate | – | –
GGLRGVR | – | – | – | A549-Lung
GGLRVGG | – | PC3 Prostate | – | –
GGLSECV | – | – | – | H226-Lung
GGLSNVV | SW620-Colon | – | – | –
GGLSPHR | – | – | – | H460-Lung
GGLSRSN | SF-268 CNS | – | – | –
GGLSVDL | – | – | – | EKVX-Lung
GGLVKRL | – | SK-MEL-2 Melanoma | – | –
GGMNGRL | HT-29 Colon | – | – | –

Substance | Cell Line (NCI-60 cell line the peptide is associated with) | Cell Line (NCI-60 cell line the peptide and its motif are associated with) | Cell Line the peptide is associated with (peptide recovered from phage library selection on this NCI-60 cell line) | Cell Line with which the peptide (and its tripeptide motif) is associated
GGPGLVM | – | OVCAR-4 Ovarian | – | –
GGRAIGA | – | – | – | Hop-92-Lung
GGRCGAE | – | – | BT-549 Breast | –
GGRELKA | – | PC3 Prostate | – | –
GGRLLRA | – | DU-145 Prostate | – | –
GGRLRAV | SNB-19 CNS; also recorded: SF-539 CNS | – | – | –
GGRPTVT | – | – | HS 578 T Breast | –
GGRPVER | – | – | UO31 Renal | –
GGRRGTS | – | – | MCF-7 Breast | –
GGRRVVV | – | – | NCI/ADR-RES Breast | –
GGRSKKV | SF-268 CNS | – | – | –
GGRSQEG | – | – | UO31 Renal | –
GGRSSHP | – | – | – | Molt-4-Leukemia
GGRSWVN | – | – | – | RPMI-8226-Leukemia
GGRVLGQ | – | OVCAR-4 Ovarian | – | –
GGRVRGG | – | OVCAR-4 Ovarian | – | –
GGSALFG | HT-29 Colon | – | – | –
GGSAWWG | – | DU-145 Prostate | – | –
GGSFSGL | – | – | – | A549-Lung
GGSGELG | – | – | – | H23-Lung
GGSGIGS | – | – | – | Hop-92-Lung
GGSIDCC | – | – | SN12C Renal | –
GGSKGSA | – | UACC 257 Melanoma | – | –

Substance | Cell Line (NCI-60 cell line the peptide is associated with) | Cell Line (NCI-60 cell line the peptide and its motif are associated with) | Cell Line the peptide is associated with (peptide recovered from phage library selection on this NCI-60 cell line) | Cell Line with which the peptide (and its tripeptide motif) is associated
GGSLKWV | – | SK-MEL-2 Melanoma | – | –
GGSPGVW | – | SK-MEL-5 Melanoma | – | –
GGSQCDT | – | – | – | K-562-Leukemia
GGSRAAE | – | – | – | H322-Lung
GGSRGYR | – | – | UO31 Renal | –
GGSRLLL | – | – | – | RPMI-8226-Leukemia
GGSRNRW | – | – | – | H226-Lung
GGSSEFR | – | – | – | Hop-92-Lung
GGSSLDA | HCT-116 Colon | – | – | –
GGSTVPQ | – | OVCAR-8 Ovarian | – | –
GGSVEGQ | – | – | ACHN Renal | –
GGSVRHV | – | – | – | RPMI-8226-Leukemia
GGVAGVS | – | – | – | A549-Lung
GGVLGSD | LOX-IMVI Melanoma | – | – | –
GGVLYLE | – | – | – | H226-Lung
GGVRIAA | HCT-116 Colon | – | – | –
GGVRLGG | – | PC3 Prostate | – | –
GGVSPVD | – | – | – | A549-Lung
GGVSRMR | – | – | CAIK-1 Renal | –
GGWARAV | SNB-75 CNS | – | – | –
GGYWLRS | – | M14 Melanoma | – | –
GHGSGSR | – | – | ACHN Renal | –
GHSERLS | – | – | T-47D Breast | –

Substance | Cell Line (NCI-60 cell line the peptide is associated with) | Cell Line (NCI-60 cell line the peptide and its motif are associated with) | Cell Line the peptide is associated with (peptide recovered from phage library selection on this NCI-60 cell line) | Cell Line with which the peptide (and its tripeptide motif) is associated
GHYRASV | HT-29 Colon | – | – | –
GKALRGV | – | – | – | Hop-62-Lung
GKGMGLG | – | OVCAR-5 Ovarian | – | –
GLEGSGG | – | – | – | H23-Lung
GLGALRW | – | – | NCI/ADR-RES Breast | –
GLGAVGW | HT-29 Colon | – | – | –
GLGGGGS | SF-268 CNS | – | – | –
GLGGWVA | – | – | – | H226-Lung
GLGIMGP | – | – | – | K-562-Leukemia
GLGLRLG | – | OVCAR-8 Ovarian | – | –
GLGNRPT | – | – | – | RPMI-8226-Leukemia
GLGRSVN | – | – | T-47D Breast | –
GLGSCAP | – | – | RXF393 Renal | –
GLGVSGV | – | – | – | Hop-62-Lung
GLLSAGI | SF-268 CNS | – | – | –
GLLSGGT | – | IGROV1 Ovarian | – | –
GLLSLXL | – | – | – | CCRF-CEM Leukemia
GLLSSFS | – | M14 Melanoma | – | –
GLMRLSH | – | UACC62 Melanoma | – | –
GLRDGVE | – | – | A498 Renal | –
GLREAHV | – | UACC62 Melanoma | – | –
